Data taken from patent US20140336182A1, “Aurora Kinase Modulators and Method of Use” (Amgen Inc., priority 2013, published 2014).
Read-outs that look alike come from different tables or passages of the source.

System: HeLa cells
Test: HeLa cell 24 hr ploidy assay (DNA content)
Assay type: cell-based
Details: HeLa cells, average, read-out: 24h_4NPloidy EC50_IP (uM Avg)
Method in brief: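 HeLa cells (1×10^4/well, MEM+10% FBS) cultured 24 h, treated with serially diluted compounds (0.25% DMSO final), then fixed, permeabilized and stained with Hoechst 33342 (0.5 ug/ml). Imaging quantified % 4N and >4N cells; EC50 IP and EC50 transit derived from dose curves.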

Structure (SMILES) | EC50 (Homo sapiens, HeLa, 4N ploidy) | further results
COc1cnc2c(Oc3ccc(Nc4nnc(-c5cc(F)cc(F)c5)c5ccccc45)cc3)ccnc2c1 [compound 539] | 0.081 µM | –
COc1cnc2c(Sc3ccc(Nc4nnc(N5CC[C@@H](OC)C5)c5ccccc45)cc3)ccnc2c1 [compound 540] | 0.013 µM | –
COc1cnc2c(Sc3ccc(Nc4nnc(C5CC5)c5ccccc45)cc3)ccnc2c1 [compound 541] | 0.038 µM | –
COc1cnc2c(Oc3ccc(Nc4nncc5ccccc45)cc3)ccnc2c1 [compound 542, N-(4-((7-methoxy-1,5-naphthyridin-4-yl)oxy)phenyl)-1-phthalazinamine] | 0.382 µM | –
COc1cnc2c(Oc3ccc(Nc4nnc(C5CC5)c5ccccc45)cc3)ccnc2c1 [compound 543] | 0.281 µM | –
COc1cnc2c(Oc3ccc(Nc4nnc(-c5ccc(C)c(N)c5)c5cc(F)c(F)cc45)cc3)ccnc2c1 [compound 545] | 0.012 µM | –
COc1ccc2nccc(Sc3ccc(Nc4nnc(N5CCCCC5)c5ccccc45)cc3)c2n1 [compound 548] | 0.036 µM | –
COc1ccc2nccc(Sc3ccc(Nc4nnc(-c5cc(C)cs5)c5ccccc45)cc3)c2n1 [compound 549] | 0.009 µM | –
COc1ccc2nccc(Sc3ccc(Nc4nnc(-c5ccc(Cl)cn5)c5ccccc45)cc3)c2n1 [compound 550] | 0.016 µM | –
COc1ccc2nccc(Oc3ccc(Nc4nnc(-c5ccc6c(c5)OCO6)c5ccccc45)cc3)c2n1 [compound 551] | 0.002 µM | –
COc1ccc2nccc(Oc3ccc(Nc4nnc(-c5cc(C)cs5)c5ccccc45)cc3)c2n1 [compound 552] | 0.01 µM | –
Cc1ccc(-c2nnc(Nc3ccc(Sc4ccnc5cccnc45)cc3)c3ccccc23)cn1 [compound 553] | 0.001 µM | –
COc1ccc2nccc(Oc3ccc(Nc4nnc(-c5ccc(C)cn5)c5ccccc45)cc3)c2c1 [compound 554] | 0.108 µM | –
COc1cnc2c(Sc3ccc(Nc4nnc(N5CCCC(C)(C)C5)c5ccccc45)cc3)ccnc2c1 [compound 555] | 0.064 µM | –
COc1cnc2c(Sc3ccc(Nc4nnc(N5CC(C)CC(C)C5)c5ccccc45)cc3)ccnc2c1 (stereo not shown) [compound 556] | 0.026 µM | –
COc1cnc2c(Sc3ccc(Nc4nnc(N5CCC(F)CC5)c5ccccc45)cc3)ccnc2c1 [compound 557] | 0.026 µM | –
COc1cnc2c(Sc3ccc(Nc4nnc(C(C)C)c5ccccc45)cc3)ccnc2c1 [compound 558] | 0.1 µM | –
Cc1cc2nccc(Sc3ccc(Nc4nnc(-c5ccc(Cl)cc5)c5ccccc45)cc3)c2s1 [compound 559] | 0.018 µM | –
Cc1cc2nccc(Sc3ccc(Nc4nnc(-c5ccc(Cl)cn5)c5ccccc45)cc3)c2s1 [compound 560] | 0.023 µM | –
c1ccc(-c2nnc(Nc3ccc(Sc4ncnc5ccccc45)cc3)c3ccccc23)cc1 [compound 561] | > 1.2 µM | –

Structure (SMILES) | EC50 (Homo sapiens, HeLa, 4N ploidy) | further results
Clc1ccc(-c2nnc(Nc3ccc(Oc4ncnc5ccccc45)cc3)c3ccccc23)cc1 [compound 562] | 0.026 µM | –
COc1cnc2c(Sc3ccc(Nc4nnc(N5CCN6CCC[C@H]6C5)c5ccccc45)cc3)ccnc2c1 [compound 563] | < 0.0023 µM | –
COc1ccc2ncnc(Oc3ccc(Nc4nnc(-c5ccc(Cl)cc5)c5ccccc45)cc3)c2c1 [compound 564] | 0.043 µM | –
COc1ccc2ncnc(Oc3ccc(Nc4nnc(-c5cc(C)cs5)c5ccccc45)cc3)c2c1 [compound 565] | 0.03 µM | –
COc1cnc2c(Oc3ccc(Nc4nnc(-c5ccc(Cl)cc5)c5ccccc45)cc3OC)ccnc2c1 [compound 566] | 0.191 µM | –
COc1cnc2c(Oc3ccc(Nc4nnc(-c5cc(C)cs5)c5ccccc45)cc3OC)ccnc2c1 [compound 567] | 0.227 µM | –
Cc1csc(-c2nnc(Nc3ccc(Oc4ncnc5ccccc45)cc3)c3ccccc23)c1 [compound 568] | 0.034 µM | –
O=c1ccc2nccc(Oc3ccc(Nc4nnc(-c5ccc(Cl)cc5)c5ccccc45)cc3)c2[nH]1 [compound 569] | 0.115 µM | –
Clc1ccc(-c2nnc(Nc3ccc(Sc4ccnc5c4CCCN5)cc3)c3ccccc23)cc1 [compound 570] | 0.008 µM | –
FC(F)(F)Oc1ccc2nccc(Sc3ccc(Nc4nnc(-c5ccccc5)c5ccccc45)cc3)c2c1 [compound 571] | 0.06 µM | –
Cc1csc(-c2nnc(Nc3ccc(Sc4ccnc5ccc(OC(F)(F)F)cc45)cc3)c3ccccc23)c1 [compound 572] | 0.055 µM | –
COc1cc(OC)c2c(Oc3ccc(Nc4nnc(-c5cc(C)cs5)c5ccccc45)cc3)ncnc2c1 [compound 573] | 0.011 µM | –
FC(F)(F)Oc1ccc2nccc(Oc3ccc(Nc4nnc(-c5ccc(Cl)cc5)c5ccccc45)cc3)c2c1 [compound 574] | 0.119 µM | –
COc1cnc2c(Sc3ccc(Nc4nnc(N5CCN6CCCC[C@@H]6C5)c5ccccc45)cc3)ccnc2c1 [compound 584] | – | EC50 (4N ploidy): 0.005 µM
CCc1cc(-c2ccccc2OC)nnc1Nc1ccc(Sc2ccnc3cc(OC)cnc23)cc1 [compound 609] | – | EC50 (Homo sapiens, HeLa): 0.055 µM
Clc1ccc(-c2nnc(Nc3ccc(Oc4ccnc5cc(OCc6ccccc6)cnc45)cc3)c3ccccc23)cc1 [compound 610] | – | EC50 (Homo sapiens, HeLa): 0.014 µM
COc1ccc2c(C(C)c3ccc(Nc4nnc(-c5ccc(Cl)cc5)c5ccccc45)cc3)ccnc2c1 (stereo not shown) [compound 613] | – | EC50 (Homo sapiens, HeLa): > 1.2 µM
COc1ccc2c(C(O)c3ccc(Nc4nnc(-c5ccc(Cl)cc5)c5ccccc45)cc3)ccnc2c1 (stereo not shown) [compound 614] | – | EC50 (Homo sapiens, HeLa): 0.053 µM
COc1ccc2c(C(=O)c3ccc(Nc4nnc(-c5ccc(Cl)cc5)c5ccccc45)cc3)ccnc2c1 [compound 615] | – | EC50 (Homo sapiens, HeLa): 0.15 µM

More lines, main results first:

EC50 (Homo sapiens, HeLa, 4N ploidy) | Structure (SMILES) | further results
0.112 µM | Cc1csc(-c2nnc(Nc3ccc(Oc4ccnc5ccc(OC(F)(F)F)cc45)cc3)c3ccccc23)c1 [compound 575] | –
0.013 µM | COc1cnc2c(Sc3ccc(Nc4nnc(N5CCn6ccnc6C5)c5ccccc45)cc3)ccnc2c1 [compound 576] | –
0.025 µM | c1ccc(-c2nnc(Nc3ccc(Sc4ccnc5c4CCCN5)cc3)c3ccccc23)cc1 [compound 577] | –
0.007 µM | COc1cnc2c(Sc3ccc(Nc4nnc(N5CCc6sccc6C5)c5ccccc45)cc3)ccnc2c1 [compound 578] | –
0.054 µM | COc1cnc2c(Sc3ccc(Nc4nnc(N5CCn6ncnc6C5)c5ccccc45)cc3)ccnc2c1 [compound 579] | –
0.005 µM | COc1cnc2c(Sc3ccc(Nc4nnc(N5CCN6CCCC[C@@H]6C5)c5ccccc45)cc3)ccnc2c1 [compound 580] | –
0.036 µM | COc1cc(OC)c2c(Sc3ccc(Nc4nnc(-c5ccccc5)c5ccccc45)cc3)ncnc2c1 [compound 581] | –
0.006 µM | COc1cnc2c(Sc3ccc(Nc4nnc(N5CCN6CCC[C@@H]6C5)c5ccccc45)cc3)ccnc2c1 [compound 582] | –
0.005 µM | COc1cnc2c(Sc3ccc(Nc4nnc(-c5ccc(OC)nc5)c5ccccc45)cc3)ccnc2c1 [compound 583] | –
0.018 µM | COc1cnc2c(Sc3ccc(Nc4nnc(N5CCN6CCCC[C@H]6C5)c5ccccc45)cc3)ccnc2c1 [compound 585] | –
0.028 µM | COc1cnc2c(Oc3ccc(Nc4nnc(N5CC[C@H]6CCCC[C@@H]6C5)c5ccccc45)cc3)ccnc2c1 [compound 586] | –
0.14 µM | COc1cnc2c(Oc3ccc(Nc4nnc(N5CC[C@@H]6CCCC[C@H]6C5)c5ccccc45)cc3)ccnc2c1 [compound 587] | –
0.004 µM | COc1cnc2c(Sc3ccc(Nc4nnc(-c5ccc(C)nc5)c5ccccc45)cc3)ccnc2c1 [compound 588] | –
0.007 µM | Cc1csc(-c2nnc(Nc3ccc(Sc4ccnc5ccc(=O)[nH]c45)cc3)c3ccccc23)c1 [compound 589] | –
0.004 µM | COc1cc(OC)c2c(Oc3ccc(Nc4nnc(-c5ccc(Cl)cc5)c5ccccc45)cc3)ncnc2c1 [compound 590] | –
0.115 µM | Clc1ccc(-c2nnc(Nc3ccc(Oc4ncnc5ccsc45)cc3)c3ccccc23)cc1 [compound 591] | –

EC50 (Homo sapiens, HeLa, 4N ploidy) | Structure (SMILES) | further results
0.147 µM | N#Cc1ccc2nccc(Oc3ccc(Nc4nnc(-c5ccccc5)c5ccccc45)cc3)c2c1 [compound 592] | –
> 1.2 µM | COCc1cc(-c2ccccc2)nnc1Nc1ccc(Oc2ccnc3cc(OC)cnc23)cc1 [compound 593] | –
0.202 µM | CCc1cc(-c2ccc3c(c2)OCO3)nnc1Nc1ccc(Oc2ccnc3cc(OC)cnc23)cc1 [compound 594] | –
0.083 µM | CCc1cc(-c2ccc(C)cc2)nnc1Nc1ccc(Nc2ccnc3cc(OC)cnc23)cc1 [compound 595] | –
0.084 µM | CCc1cc(-c2ccc(C)cc2)nnc1Nc1ccc(Nc2ccnc3cc(C#N)ccc23)cc1 [compound 596] | –
0.061 µM | COc1cc2nccc(Sc3ccc(Nc4nnc(-c5ccccc5)c5ccccc45)cc3)c2nc1OC [compound 597] | –
0.028 µM | COc1cc2nccc(Sc3ccc(Nc4nnc(-c5ccc(Cl)cc5)c5ccccc45)cc3)c2nc1OC [compound 598] | –
> 1.2 µM | Brc1cnc2c(Oc3ccc(Nc4nnc(-c5ccccc5)c5ccccc45)cc3)ncnc2c1 [compound 599] | –
0.007 µM | COc1cnc2c(Sc3ccc(Nc4nnc(N5CCN6C[C@H](F)C[C@H]6C5)c5ccccc45)cc3)ccnc2c1 [compound 600] | –
0.005 µM | COc1cnc2c(Sc3ccc(Nc4nnc(N5CCN6CC(F)(F)C[C@H]6C5)c5ccccc45)cc3)ccnc2c1 [compound 601] | –
0.087 µM | COc1cnc2c(Oc3ccc(Nc4nnc(N5CCN6CCCCC[C@@H]6C5)c5ccccc45)cc3)ccnc2c1 [compound 604] | –
0.018 µM | COc1cnc2c(Sc3ccc(Nc4nnc(N5CCN(S(C)(=O)=O)CC5)c5ccccc45)cc3)ccnc2c1 [compound 605] | –
0.292 µM | COc1cc(OC)c2c(Oc3ccc(Nc4nnc(-c5ccccc5)c5ccccc45)cn3)ncnc2c1 [compound 606] | –
0.482 µM | COc1cnc2c(Oc3ccc(Nc4nnc(N5CCN(S(C)(=O)=O)CC5)c5ccccc45)cc3)ccnc2c1 [compound 607] | –
0.016 µM | COc1cnc2c(Sc3ccc(Nc4nnc(N5CCN(C(C)=O)CC5)c5ccccc45)cc3)ccnc2c1 [compound 608] | –
